Here are results for 16 compounds from PubChem BioAssay AID388 (SGCOxCompounds, 2006).

For the experiment, the target named is 15-hydroxyprostaglandin dehydrogenase [NAD(+)] (Homo sapiens) (UniProt P15428). The experiment is described as follows: ligand-induced stabilization of human HPGD – biophysical, DSF, SYPRO orange, purified protein (AID 388). The conditions noted are these: at 10 µM, buffer 10 mM HEPES, pH 7.5, NaCl 150 mM, stronger effect = higher value.
Sequence of 15-hydroxyprostaglandin dehydrogenase [NAD(+)] (Homo sapiens) (P15428 whole entry, looked up): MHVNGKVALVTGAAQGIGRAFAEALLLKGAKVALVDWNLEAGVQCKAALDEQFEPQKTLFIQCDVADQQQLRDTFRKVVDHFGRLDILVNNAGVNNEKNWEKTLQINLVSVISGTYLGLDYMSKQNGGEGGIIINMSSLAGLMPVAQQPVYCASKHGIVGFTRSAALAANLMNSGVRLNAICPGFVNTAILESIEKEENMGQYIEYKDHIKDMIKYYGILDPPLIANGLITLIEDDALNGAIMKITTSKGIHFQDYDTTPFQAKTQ

For the compound `COc1cc([C@@H]2Oc3cc([C@@H]4Oc5cc(O)cc(O)c5C(=O)[C@H]4C)ccc3O[C@H]2CO)ccc1O`, the Tm shift is 2.4 Celsius.

`CCc1nnc(NS(=O)(=O)c2ccc(NC(=O)/C=C/c3ccc(F)cc3)cc2)s1`: the Tm shift is 2.9 Celsius.

In the case of `O=c1c(-c2ccc(O)cc2)coc2cc(O)cc(O)c12`, the Tm shift is 2.12 Celsius. The same measure, in the same setting: the result for `CC1=CC(=O)C=C(C)C1=O` reads 6.05 Celsius. Take `O=C1NC(=O)c2c1c1c3ccccc3[nH]c1c1[nH]c3cc(Br)ccc3c21`: the Tm shift is 2.11 Celsius. Regarding `CCc1ccc(CCOc2ccc(CC3SC(=O)CC3=O)cc2)nc1` (stereo unspecified), the Tm shift is 2.28 Celsius. In the case of `COc1ccc2c(c1)c(CC(=O)O)c(C)n2C(=O)c1ccc(Cl)cc1`, the Tm shift was 2.1 Celsius. As for `O=C1CC(c2ccc(O)cc2)Oc2cc(O)cc(O)c21` (stereo unspecified), the Tm shift was 3.1 Celsius.

Regarding `C[C@@]1(c2ccc(O)cc2)CC(=O)c2c(O)cc(O)cc2O1`, the Tm shift is 2.25 Celsius. Turning to `CC1(C)[C@@H](OC(=O)CCC(=O)O)CC[C@]2(C)[C@H]3C(=O)C=C4[C@@H]5C[C@@](C)(C(=O)O)CC[C@]5(C)CC[C@@]4(C)[C@]3(C)CC[C@@H]12`, the Tm shift was 2.35 Celsius.

Take `O=c1cc(-c2ccc(O)c(O)c2)oc2cc(O)cc(O)c12`: the Tm shift is 2.19 Celsius. The same measure, in the same setting: to `O=C(O)c1cccnc1Nc1cccc(C(F)(F)F)c1` belongs 2.1 Celsius; to `Cc1c(O)cc(O)c2c1OC(c1ccc(O)c(O)c1)C(=O)C2=O` (stereo unspecified), 2.5 Celsius. With `CN(CCOc1ccc(CC2SC(=O)NC2=O)cc1)c1ccccn1` (stereo unspecified), the Tm shift (NADH 40 µM) is 2.5 Celsius. Consider `O=c1cc(-c2ccccc2)oc2cc(O)c(O)c(O)c12`, for which the Tm shift was 2.9 Celsius. Turning to `CCc1nnc(NS(=O)(=O)c2ccc(NC(=O)c3ccc(Cl)cc3Cl)cc2)s1`, the Tm shift was 2.2 Celsius.
